Assay results published in US11174464B2, “Method for preparing osteoblasts and osteoblast inducer” (KYOTO PREFECTURAL PUBLIC UNIVERSITY CORPORATION, priority 2014, dated 2021).

Legend:
[1] = tested on: human alkaline phosphatase (ALP) gene; test: Real-time RT-PCR of ALP mRNA in cultured HDF; type: cell-based; details: 10% FBS induction medium, 28 days, relative to normal human fibroblasts = 1 (FIG. 13)
Method: Then, total RNA was collected from the cells using ISOGEN II, and cDNA was synthesized using ReverTra Ace qPCR RT Master Mix. Real-time PCR Master Mix, TaqMan probes, specific primers, and cDNA were mixed, and real-time RT-PCR was performed using an AB7300 Real-Time PCR System to quantify the mRNA of Runx2, osteocalcin (OC), and alkaline phosphatase (ALP) genes. […] Further, RNA was harvested from human osteoblasts, and the same analysis was performed.
The culture was performed as in “2-1” above by adding the stated compounds.
Then, total RNA was collected from the cells using ISOGEN II, and cDNA was synthesized using ReverTra Ace qPCR RT Master Mix. Real-time PCR Master Mix, and a TaqMan probe and primers specific to a human alkaline phosphatase (ALP) gene were added, and real-time RT-PCR was performed using an AB7300 Real-Time PCR System. Furthermore, total RNA was extracted from osteoblasts from normal human bone, and analysis was performed in a similar manner.
Furthermore, total RNA was extracted from osteoblasts from normal human bone, and analysis was performed in a similar manner.
Twenty-eight days after the culture, the mRNA expression of ALP gene in the cells in each well was analyzed by real-time RT-PCR, as in “2-3” above. Furthermore, total RNA was extracted from osteoblasts from normal human bone, and analysis was performed in a similar manner.

[2] = tested on: Normal human white preadipocytes (HWPs); test: Alizarin Red S staining, induction from normal human white preadipocytes; type: cell-based; details: induction medium with 10% FBS, 21 days (FIG. 23)
[3] = tested on: normal human dermal fibroblast (HDF) strain; test: Alizarin Red S staining of calcified bone matrix in fibroblasts cultured in induction medium; details: for Alizarin Red S staining images and intensity (OD 550-650 nm), ability to produce calcified matrix: 28 days (FIG. 19); for Alizarin Red S staining intensity (OD 550-650 nm), ability to produce calcified matrix: 28 days (FIG. 10)
[4] = tested on: human Runx2 gene; test: Real-time RT-PCR of Runx2 mRNA in cultured HDF; type: cell-based; details: induction medium, 28 days (FIG. 17)
Method: The culture was performed as in “1” above by adding the stated compounds.
Then, total RNA was collected from the cells using ISOGEN II, and cDNA was synthesized using ReverTra Ace qPCR RT Master Mix. Real-time PCR Master Mix, and a TaqMan probe and primers specific to human Runx2 gene were added, and real-time RT-PCR was performed using an AB7300 Real-Time PCR System.

[5] = tested on: human osteocalcin (OC); test: Real-time RT-PCR of osteocalcin (OC) mRNA in cultured HDF; type: cell-based; details: 5% human serum induction medium, 28 days (FIG. 16)
Method: The culture was performed as in “2-6” above by adding the stated compounds.
Then, total RNA was collected from the cells using ISOGEN II, and cDNA was synthesized using ReverTra Ace qPCR RT Master Mix. Real-time PCR Master Mix, and a TaqMan probe and primers specific to human osteocalcin (OC) were added, and real-time RT-PCR was performed using an AB7300 Real-Time PCR System.

| SMILES | ALP mRNA expression by real-time RT-PCR [1] | Alizarin Red S staining images, ability to produce calcified matrix [2] | Alizarin Red S staining images and intensity (OD 550-650 nm), ability to produce calcified matrix [3] | Alizarin Red S staining images and intensity, ability to produce calcified matrix ([3]; induction medium with 5% human serum, 28 days (FIG. 12)) | Alizarin Red S staining intensity (OD 550-650 nm), ability to produce calcified matrix ([3]; induction medium with 10% FBS) | Alizarin Red S staining images and intensity, ability to produce calcified matrix ([3]; induction medium with 10% FBS, 28 days (FIG. 11)) | Runx2 mRNA expression by real-time RT-PCR [4] | osteocalcin (OC) mRNA expression by real-time RT-PCR [5] |
| --- | --- | --- | --- | --- | --- | --- | --- | --- |
| Nc1nccc2c1ncn2[C@@H]1C=C(CO)[C@@H](O)[C@H]1O [DZNep, 3-deazaneplanocin A] | – | – | induced the ability to produce calcified matrix | – | – | – | – | – |
| CC(C)c1c(C(=O)Nc2ccccc2)c(-c2ccccc2)c(-c2ccc(F)cc2)n1CC[C@@H](O)C[C@@H](O)CC(=O)O [AS, atorvastatin] | induced the mRNA expression of ALP gene | – | – | – | induced the ability to produce calcified matrix | – | induced the mRNA expression of Runx2 gene | – |
| O=C(O)c1ccc2c(c1)nc(Nc1cccc(Cl)c1)c1ccncc12 [CX-4945] | – | – | no effect | – | – | – | – | – |

Further lines, with some results ahead:

| ALP mRNA expression by real-time RT-PCR [1] | SMILES | Alizarin Red S staining images, ability to produce calcified matrix [2] | Alizarin Red S staining images and intensity (OD 550-650 nm), ability to produce calcified matrix [3] | Alizarin Red S staining images and intensity, ability to produce calcified matrix ([3]; induction medium with 5% human serum, 28 days (FIG. 12)) | Alizarin Red S staining intensity (OD 550-650 nm), ability to produce calcified matrix ([3]; induction medium with 10% FBS) | Alizarin Red S staining images and intensity, ability to produce calcified matrix ([3]; induction medium with 10% FBS, 28 days (FIG. 11)) | Runx2 mRNA expression by real-time RT-PCR [4] | osteocalcin (OC) mRNA expression by real-time RT-PCR [5] |
| --- | --- | --- | --- | --- | --- | --- | --- | --- |
| induced the mRNA expression of ALP gene | NC(=O)c1ccc(-c2nc(-c3ccc4c(c3)OCCO4)c(-c3ccccn3)[nH]2)cc1 [D4476, 4-[4-(2,3-dihydro-1,4-benzodioxin-6-yl)-5-(2-pyridinyl)1H-imidazol-2-yl]-benzamide] | strongly induced the ability to produce calcified matrix | induced the ability to produce calcified matrix | induced a higher ability to produce calcified matrix | induced the ability to produce calcified matrix | induced the ability to produce calcified matrix | – | – |
| induced the mRNA expression of ALP gene | CC(C)c1nc(N(C)S(C)(=O)=O)nc(-c2ccc(F)cc2)c1/C=C/[C@@H](O)C[C@@H](O)CC(=O)O [RS, rosuvastatin] | – | – | – | induced the ability to produce calcified matrix | – | induced the mRNA expression of Runx2 gene | induced the mRNA expression of osteocalcin |
| induced the mRNA expression of ALP gene | CC[C@H](C)C(=O)O[C@H]1C[C@@H](C)C=C2C=C[C@H](C)[C@H](CC[C@@H]3C[C@@H](O)CC(=O)O3)[C@H]21 [LS, lovastatin] | – | – | – | induced the ability to produce calcified matrix | – | induced the mRNA expression of Runx2 gene | – |
